Results taken from patent US6387668B1, “Enantioselective epoxide hydrolases and genes encoding these” (Rijksuniversiteit Groningen, priority 1997, dated 2002).

Columns and labels:
[1] = target: epoxide hydrolase (Agrobacterium tumefaciens, UniProt O31243); assay: Kinetics of epoxide hydrolase with epichlorohydrin as substrate; type: biochemical, Agrobacterium radiobacter
Text: It is now possible to study the kinetics of epoxide hydrolase by performing rapid quench and stopped flow experiments. Stopped flow experiments are possible since substrate is able to quench the fluorescence signal of some of the tryptophans present in epoxide hydrolase. Also, it is possible to mutate (replace) the amino acids (e.g. tryptophans) that are involved in substrate binding. Either with site-directed mutagenesis or random mutagenesis, it is possible to modify the substrate specificity and the stereoselectivity of epoxide hydrolase. The epoxide hydrolase has the following characteristics.
The asymmetric hydrolysis of the substrate is generally conducted in aqueous solution. The pH of the solution is maintained by means of a buffer. Maximum enzyme activity is obtained at pH 9 but a range of pH 5 to 11 can be employed. The composition of the buffer can for example be Tris/H2SO4, potassium phosphate or glycine/NaOH. The maximum enzyme activity is obtained at a temperature of 50° C., but the reaction can be conducted at a temperature ranging from 5° C. to 65° C. The substrate concentration used to measure the enzyme activity is from 1 to 20 mM. In case of poorly soluble substrates, the water solubility can be increased by adding a miscible organic cosolvent such a DMSO. Also other organic solvents can be used. […]

[2] = Storage stability of recombinant epoxide hydrolase; type: physicochemical; conditions: 4° C., expressed in E.coli

Row | Molecule | Km [1] [µM] | Vmax [1] [μmol min^−1.mg.protein^−1] | Stability on storage [2]
1 | ClCC1CO1 (stereo not drawn) [epichlorohydrin] | < 30 | 25 | 
2 | epoxide hydrolase: 34 kDa monomeric enzyme (approximately 294 amino acids) from Agrobacterium radiobacter AD1, expressed in E.coli (protein) MTIRRPEDFKHYEVQLPDVKIHYVREGAGPTLLLLHGWPGFWWEWSKVIGPLAEHYDVIVPDLRGFGDSEKPDLNDLSKYSLDKAADDQAALLDALGIEKAYVVGHDFAAIVLHKFIRKYSDRVIKAAIFDPIQPDFGPVYFGLGHVHESWYSQFHQLDMAVEVVGSSREVCKKYFKHFFDHWSYRDELLTEEELEVHVDNCMKPDNIHGGFNYYRANIRPDAALWTDLDHTMSDLPVTMIWGLGDTCVPYAPLIEFVPKYYSNYTMETIEDCGHFLMVEKPEIAIDRIKTAFR |  |  | stable at 4 °C for at least half a year
